Activity calls are given as the source filed them.
Columns and labels:
Cytochrome P450 1A2 = molecular target: T1, Cytochrome P450 1A2 (Homo sapiens, UniProt P05177);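 also: PubChem cytochrome P450 panel assay, CYP1A2 panel member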
T1 sequence (P05177 whole entry): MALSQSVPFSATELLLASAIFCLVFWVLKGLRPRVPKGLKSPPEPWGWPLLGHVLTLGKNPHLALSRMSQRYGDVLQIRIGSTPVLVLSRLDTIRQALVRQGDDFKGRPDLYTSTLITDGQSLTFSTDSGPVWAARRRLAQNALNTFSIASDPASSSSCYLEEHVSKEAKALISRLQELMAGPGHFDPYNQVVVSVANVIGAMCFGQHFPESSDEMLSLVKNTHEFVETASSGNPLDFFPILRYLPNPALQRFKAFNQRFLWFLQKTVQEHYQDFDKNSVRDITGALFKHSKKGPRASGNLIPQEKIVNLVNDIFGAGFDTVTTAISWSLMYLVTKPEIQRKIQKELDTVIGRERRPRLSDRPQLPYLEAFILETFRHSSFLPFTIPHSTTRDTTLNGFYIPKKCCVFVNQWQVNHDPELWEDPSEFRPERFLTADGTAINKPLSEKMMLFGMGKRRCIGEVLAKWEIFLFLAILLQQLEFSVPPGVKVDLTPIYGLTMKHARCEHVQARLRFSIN

Cytochrome P450 2D6 = Cytochrome P450 2D6 (Homo sapiens, UniProt P10635);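 also: CYP2D6 member of a cytochrome P450 panel assay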
[1] = alpha-synuclein stem-loop luciferase translation blockers – H4 neuroglioma cells, luminescence, confirmation (AID 1988); format: functional, cell-based
[2] = molecular target: T2, Heat shock factor protein 1 (Mus musculus, UniProt P38532); test: decrease of HSF1-responsive luciferase luminescence – cell-based, NIH3T3, dose retest, confirmation (AID 2382); format: functional;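 also: NIH3T3 fibroblasts with HSF1-driven luciferase reporter stressed by proteasome inhibitor MG132; luminescence from HSF1-driven luciferase expression after 8 hours of MG132 stress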
T2 sequence (P38532 whole entry): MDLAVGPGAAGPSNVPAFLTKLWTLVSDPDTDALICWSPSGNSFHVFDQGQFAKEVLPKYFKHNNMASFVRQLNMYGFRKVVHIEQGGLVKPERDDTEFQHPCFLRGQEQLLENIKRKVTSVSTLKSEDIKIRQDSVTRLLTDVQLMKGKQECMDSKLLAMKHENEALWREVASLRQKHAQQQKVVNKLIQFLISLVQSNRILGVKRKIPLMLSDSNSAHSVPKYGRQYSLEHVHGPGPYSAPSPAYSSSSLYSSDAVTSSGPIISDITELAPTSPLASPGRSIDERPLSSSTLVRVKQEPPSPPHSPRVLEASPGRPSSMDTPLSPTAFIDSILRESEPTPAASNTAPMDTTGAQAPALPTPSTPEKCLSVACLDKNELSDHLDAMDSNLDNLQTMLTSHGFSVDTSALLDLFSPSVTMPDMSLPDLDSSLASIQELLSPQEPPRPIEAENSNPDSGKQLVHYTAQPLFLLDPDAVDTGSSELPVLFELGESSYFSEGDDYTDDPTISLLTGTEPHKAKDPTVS

[3] = luciferase reporter signal suppression in cells – H4 neuroglioma cells, luminescence, dose response (AID 1990); format: functional, cell-based
[4] = Luminescence Cell-Based Dose Response HTS to Identify Inhibitors of 5'UTR Stem-Loop Driven Prion Protein mRNA Translation in H4 Neuroglioblastoma Cells. [Related pubchem assays: 1827 (Project Summary), 1813 (Primary HTS)]; format: functional
Cytochrome P450 2C9 = Cytochrome P450 2C9 (Homo sapiens, UniProt P11712)
Genome polyprotein = Genome polyprotein (dengue virus type 2, UniProt P29990); test: flavivirus cap methylation enzyme inhibition – biochemical, confirmation dose response, primary screen (AID 588689); format: functional
Cytochrome P450 3A4 = Cytochrome P450 3A4 (Homo sapiens, UniProt P08684);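 also: CYP3A4 tested as one member of a cytochrome P450 panel screen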
[5] = molecular target: T3, Zinc finger protein mex-5 (Caenorhabditis elegans, UniProt Q9XUB2); test: potency of MEX-5 RNA-binding blockers – biochemical, C. elegans, fluorescence polarization, dose response (AID 1960)
T3 sequence (Q9XUB2 whole entry): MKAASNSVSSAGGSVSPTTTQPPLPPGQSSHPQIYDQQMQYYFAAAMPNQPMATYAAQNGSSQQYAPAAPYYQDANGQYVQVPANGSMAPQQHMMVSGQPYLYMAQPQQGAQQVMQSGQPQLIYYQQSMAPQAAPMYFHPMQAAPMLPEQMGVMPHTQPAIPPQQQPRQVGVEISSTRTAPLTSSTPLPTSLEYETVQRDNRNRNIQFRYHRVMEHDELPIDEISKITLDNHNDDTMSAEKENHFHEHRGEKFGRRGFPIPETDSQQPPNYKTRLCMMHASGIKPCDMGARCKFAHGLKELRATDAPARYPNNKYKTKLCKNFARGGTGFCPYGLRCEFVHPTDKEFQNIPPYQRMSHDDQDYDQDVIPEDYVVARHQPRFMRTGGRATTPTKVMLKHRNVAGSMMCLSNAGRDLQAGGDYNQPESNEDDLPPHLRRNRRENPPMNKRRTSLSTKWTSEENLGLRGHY

[6] = molecular target: T4, RNA-binding protein pos-1 (Caenorhabditis elegans, UniProt G5EF15); test: disruptors of C. elegans POS-1 RNA interaction – biochemical, fluorescence polarization, dose response (AID 1964);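 also: purified POS-1 fused to maltose binding protein made in E. coli; potency of compounds blocking POS-1 binding to fluorescent RNA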
T4 sequence (G5EF15 whole entry): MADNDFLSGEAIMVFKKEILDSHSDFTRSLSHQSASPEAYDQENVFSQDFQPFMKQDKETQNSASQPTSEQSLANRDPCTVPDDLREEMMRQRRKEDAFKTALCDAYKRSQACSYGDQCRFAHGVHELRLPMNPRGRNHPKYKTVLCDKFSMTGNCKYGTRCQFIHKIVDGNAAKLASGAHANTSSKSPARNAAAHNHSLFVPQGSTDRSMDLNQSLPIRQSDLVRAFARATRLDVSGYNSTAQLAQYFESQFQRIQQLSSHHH

Cytochrome P450 2C19 = Cytochrome P450 2C19 (Homo sapiens, UniProt P33261); test: Cytochrome panel assay with activity outcomes. Panel member name: p450-cyp2c19 Compounds with AC50 equal or less than 10 uM are considered active; format: functional; settings: read-out: AC50
Streptococcus = test: GAS UMAA2166 growth inhibition – luminescence, BacTiterGlo, counter-screen for streptokinase expression inhibitor project, dose response (AID 1915); format: functional, organism-based;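 also: potency for reduction of bacterial viability or growth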
INS1 = test: INS-1E survival protection against cytokine death – cell-based, luminescence, retest, dose response (AID 449756); format: functional; settings: Rattus norvegicus;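 also: cell death triggered by IL-1 beta plus TNF-alpha plus IFN-gamma mixture; protective hits raise ATP signal compared with cytokine alone wells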
[7] = test system: Streptococcus sp. 'group A'; test: Streptococcus pyogenes SK(-)GAS viability under kanamycin – luminescence, BacTiterGlo, confirmation, counter-screen for streptokinase expression inhibitor project, dose response (AID 1900); format: functional, organism-based
[8] = NIH3T3 cell viability loss – ATP luminescence, mouse fibroblasts, counter-screen, dose response (AID 2010); format: functional, cell-based;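 also: cells exposed to compound for about 90 hours before reading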
[9] = Trypanosoma cruzi growth suppression in host cells – NIH3T3 host cells, beta-gal luminescence, confirmation (AID 2044); format: functional, cell-based;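 also: intracellular parasites grown in NIH/3T3 mouse fibroblasts as host cells; luminescent beta-galactosidase reporter signal from transgenic T. cruzi replicating inside host cells; inhibitors lower the luminescence signal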

Chain of Cytochrome P450 2C9 (P11712 whole entry): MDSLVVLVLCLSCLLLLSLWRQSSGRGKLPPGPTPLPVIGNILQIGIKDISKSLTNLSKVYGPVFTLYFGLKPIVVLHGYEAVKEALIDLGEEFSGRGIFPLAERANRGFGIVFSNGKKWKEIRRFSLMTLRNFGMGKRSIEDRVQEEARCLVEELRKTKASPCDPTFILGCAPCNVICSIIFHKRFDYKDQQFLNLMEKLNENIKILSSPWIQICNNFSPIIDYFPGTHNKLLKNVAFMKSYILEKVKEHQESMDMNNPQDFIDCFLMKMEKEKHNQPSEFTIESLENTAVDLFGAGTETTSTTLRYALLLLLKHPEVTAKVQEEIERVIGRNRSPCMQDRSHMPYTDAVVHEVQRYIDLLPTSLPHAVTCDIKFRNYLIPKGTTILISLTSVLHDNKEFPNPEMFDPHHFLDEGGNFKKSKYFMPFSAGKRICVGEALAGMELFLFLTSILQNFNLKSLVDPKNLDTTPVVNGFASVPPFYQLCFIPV
Chain of Cytochrome P450 2D6 (P10635 whole entry): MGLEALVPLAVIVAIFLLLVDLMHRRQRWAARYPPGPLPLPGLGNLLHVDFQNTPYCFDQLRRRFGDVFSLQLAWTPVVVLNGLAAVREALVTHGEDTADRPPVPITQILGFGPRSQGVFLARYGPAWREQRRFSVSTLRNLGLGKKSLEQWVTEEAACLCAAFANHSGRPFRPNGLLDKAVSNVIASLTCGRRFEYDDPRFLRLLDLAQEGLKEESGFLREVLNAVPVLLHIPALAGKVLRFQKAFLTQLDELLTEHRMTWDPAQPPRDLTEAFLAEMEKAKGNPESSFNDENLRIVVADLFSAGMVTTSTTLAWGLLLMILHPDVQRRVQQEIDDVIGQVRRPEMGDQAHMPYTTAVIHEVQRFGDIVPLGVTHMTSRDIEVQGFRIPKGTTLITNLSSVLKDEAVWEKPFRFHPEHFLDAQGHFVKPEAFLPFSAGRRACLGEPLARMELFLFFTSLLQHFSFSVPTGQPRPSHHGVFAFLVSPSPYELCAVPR
Chain of Cytochrome P450 3A4 (P08684 whole entry): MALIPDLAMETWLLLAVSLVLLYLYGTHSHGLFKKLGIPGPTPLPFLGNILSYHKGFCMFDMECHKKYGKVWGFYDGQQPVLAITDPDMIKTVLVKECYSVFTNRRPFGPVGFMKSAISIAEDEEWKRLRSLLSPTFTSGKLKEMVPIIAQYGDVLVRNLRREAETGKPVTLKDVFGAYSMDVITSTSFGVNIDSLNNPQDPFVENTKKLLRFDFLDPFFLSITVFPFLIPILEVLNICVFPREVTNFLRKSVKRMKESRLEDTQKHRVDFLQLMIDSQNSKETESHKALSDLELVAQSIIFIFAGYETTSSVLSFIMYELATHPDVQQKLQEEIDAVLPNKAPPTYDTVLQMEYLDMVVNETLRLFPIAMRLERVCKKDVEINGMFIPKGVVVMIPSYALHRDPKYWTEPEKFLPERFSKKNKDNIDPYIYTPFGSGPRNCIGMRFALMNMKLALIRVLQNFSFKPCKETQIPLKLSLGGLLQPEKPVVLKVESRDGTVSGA
Chain of Genome polyprotein (P29990 2492-3391 limits assumed): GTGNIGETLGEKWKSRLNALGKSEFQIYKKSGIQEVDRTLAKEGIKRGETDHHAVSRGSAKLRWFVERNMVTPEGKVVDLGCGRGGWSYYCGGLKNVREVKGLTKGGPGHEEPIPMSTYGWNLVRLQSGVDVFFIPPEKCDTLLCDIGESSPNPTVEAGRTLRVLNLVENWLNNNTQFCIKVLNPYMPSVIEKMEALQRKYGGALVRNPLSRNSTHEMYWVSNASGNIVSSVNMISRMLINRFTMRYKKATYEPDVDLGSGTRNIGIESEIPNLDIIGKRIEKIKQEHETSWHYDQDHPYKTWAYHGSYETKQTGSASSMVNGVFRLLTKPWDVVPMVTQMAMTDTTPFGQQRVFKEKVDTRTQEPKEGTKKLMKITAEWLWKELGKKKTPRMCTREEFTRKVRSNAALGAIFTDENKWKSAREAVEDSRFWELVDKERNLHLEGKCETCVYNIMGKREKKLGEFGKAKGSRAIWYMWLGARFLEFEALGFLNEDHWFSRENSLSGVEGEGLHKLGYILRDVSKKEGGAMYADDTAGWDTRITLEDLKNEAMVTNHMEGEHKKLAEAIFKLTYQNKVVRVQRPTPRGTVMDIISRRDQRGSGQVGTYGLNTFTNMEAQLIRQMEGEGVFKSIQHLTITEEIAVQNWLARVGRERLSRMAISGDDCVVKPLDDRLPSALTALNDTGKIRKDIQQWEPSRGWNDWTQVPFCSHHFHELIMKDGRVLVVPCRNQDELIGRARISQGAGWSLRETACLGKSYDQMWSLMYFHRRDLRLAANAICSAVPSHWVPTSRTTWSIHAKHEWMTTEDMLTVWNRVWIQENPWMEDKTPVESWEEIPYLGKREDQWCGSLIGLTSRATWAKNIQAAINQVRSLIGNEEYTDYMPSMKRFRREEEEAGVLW
Chain of Cytochrome P450 2C19 (P33261 whole entry): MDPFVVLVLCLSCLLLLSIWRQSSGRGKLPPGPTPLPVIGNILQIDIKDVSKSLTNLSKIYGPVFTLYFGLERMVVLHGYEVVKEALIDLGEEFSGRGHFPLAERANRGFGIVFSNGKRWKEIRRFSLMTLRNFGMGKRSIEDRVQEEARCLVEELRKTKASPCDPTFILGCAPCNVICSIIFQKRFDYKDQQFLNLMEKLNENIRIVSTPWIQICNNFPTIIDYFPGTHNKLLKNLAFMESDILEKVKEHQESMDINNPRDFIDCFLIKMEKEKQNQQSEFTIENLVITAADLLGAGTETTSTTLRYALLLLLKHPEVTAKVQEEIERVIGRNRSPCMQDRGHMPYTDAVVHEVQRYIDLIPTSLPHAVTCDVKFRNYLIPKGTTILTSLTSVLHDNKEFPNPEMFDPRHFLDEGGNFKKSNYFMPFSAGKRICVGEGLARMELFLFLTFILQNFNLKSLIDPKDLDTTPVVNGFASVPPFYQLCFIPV

| SMILES | AC50 (Cytochrome P450 1A2) | AC50 (Cytochrome P450 2D6) | EC50 [1] | EC50 [4] | other results |
| --- | --- | --- | --- | --- | --- |
| COCCn1c(=O)c(-c2cccc(C#N)c2)nc2cnc(Nc3ccccc3)nc21 | 2.51 µM (inconclusive) | 2.51 µM (inconclusive) | – | – | – |
| c1ccc(Oc2cccc(OCCn3cncn3)c2)cc1 | – | – | > 120 µM (not active) | > 120 µM (not active) | EC50 [2]: > 195 µM (not active); EC50 [3]: > 120 µM (not active) |
| COc1cccc(Nc2ncc3nc(-c4ccc(F)cc4)c(=O)n(C)c3n2)c1 | 3.16 µM (inconclusive) | – | – | – | – |
| COc1ccc2nc(C)cc(SCC(=O)NNC(=O)COc3ccc(C)cc3)c2c1 | – | 2 µM (inconclusive) | – | – | AC50 (Cytochrome P450 2C9): 1.78 µM (inconclusive) |
| Cc1ccc(S(=O)(=O)NN2C(=O)/C(=C/c3ccc(C(=O)O)cc3)SC2=S)cc1 | – | – | – | – | IC50 (Genome polyprotein): 64.9 µM (active) |
| COC(=O)C/C=C\[C@@H](C)[C@@H](/C=N\O[C@@H](C)CN1CCCc2nc(C)c(C)cc21)OC | – | 2.51 µM (inconclusive) | – | – | AC50 (Cytochrome P450 3A4): 3.16 µM (inconclusive) |
| COc1cc(C2C(C#N)=C(N)OC3=C2C(=O)CC(C)(C)C3)c([N+](=O)[O-])cc1OC (stereo not given) | – | – | – | – | IC50 (Genome polyprotein): > 100 µM (active); EC50 [5]: 23 µM (inconclusive); EC50 [6]: 19.5 µM (active) |
| Cc1ccc(-n2nc3ccc(N)cc3n2)c(C)c1 | – | – | 16.6 µM (active) | 20.3 µM (active) | EC50 [3]: 15.2 µM (active) |
| O=[N+]([O-])c1ccc(Nc2nc3ccccc3s2)cc1 | – | 3.16 µM (inconclusive) | – | – | AC50 (Cytochrome P450 3A4): 5.01 µM (inconclusive) |
| CN(C)c1ncc2nc(CCc3ccccc3)c(=O)n(Cc3cccs3)c2n1 | – | 25.1 µM (inconclusive) | – | – | – |
| CNCCNS(=O)(=O)c1cccc2cnccc12 | – | 5.01 µM (inconclusive) | – | – | AC50 (Cytochrome P450 3A4): 20 µM (inconclusive) |
| CC(C)Oc1ccccc1C1Nc2ccccc2C(=O)N1c1ccc2c(c1)OCCO2 (stereo not given) | – | – | 9.51 µM (active) | > 120 µM (not active) | – |
| O=C(c1cc(C(F)(F)F)cc(C(F)(F)F)c1)N1CCC[C@@]2(CCN(Cc3nccs3)C2)C1 | 20 µM (inconclusive) | – | – | – | – |
| Cc1ccc2c(c1)[C@@H]1CN(C)CC[C@@H]1N2S(=O)(=O)c1ccc(F)cc1 | 17.8 µM (inconclusive) | – | – | – | AC50 (Cytochrome P450 2C9): 0.00562 µM (inconclusive); AC50 (Cytochrome P450 2C19): 28.2 µM (inconclusive) |
| NNC(=O)c1[nH]c2ccccc2c1-c1ccccc1 | – | – | > 120 µM (not active) | > 120 µM (not active) | EC50 [3]: > 120 µM (not active) |
| Nc1nc(O)c(/N=N\c2ccccc2)c(C(=O)O)n1 | 1.26 µM (inconclusive) | – | – | – | – |

| SMILES | AC50 (Cytochrome P450 1A2) | AC50 (Cytochrome P450 2D6) | EC50 [1] | EC50 [4] | other results |
| --- | --- | --- | --- | --- | --- |
| CCCCn1c(SCC(=O)Nc2nccs2)nc2ccccc2c1=O | 0.2 µM (inconclusive) | – | – | – | AC50 (Cytochrome P450 2C9): 0.398 µM (inconclusive); AC50 (Cytochrome P450 2C19): 0.0708 µM (inconclusive) |
| CO[C@H]1COC(=O)[C@H]2CCCN2C(=O)C/C=C\[C@@H](C)[C@H](OC)COC(=O)[C@@H](OCc2ccccc2)/C=C\[C@@H]1C | – | 3.16 µM (inconclusive) | – | – | AC50 (Cytochrome P450 3A4): 3.98 µM (inconclusive) |
| O[C@@H](COc1ccc(Cl)cc1Cl)CN1CCCC1 | 5.01 µM (inconclusive) | – | – | – | – |
| CC[C@H](Oc1ccc(Cl)cc1)C(=O)OC1C[C@H]2CC[C@@H](C1)N2C (stereo not given in full) | 31.6 µM (inconclusive) | – | – | – | – |
| CCOC(=O)N1CCN(C(=O)CN(c2ccc(OC)cc2)S(C)(=O)=O)CC1 | – | – | > 120 µM (not active) | 83.4 µM (active) | EC50 [3]: > 120 µM (not active) |
| Cn1c(SCc2nc(O)c3ccc(C(=O)O)cc3n2)nnc1C(F)(F)F | – | – | > 120 µM (not active) | 38.9 µM (active) | EC50 [3]: > 120 µM (not active) |
| CC(C)C[C@H](NC(=O)c1[nH]cnc1C(=O)N[C@@H](CC(C)C)C(=O)OC(C)(C)C)C(=O)OCc1ccccc1 | – | – | 8.51 µM (active) | 15.7 µM (active) | EC50 (Streptococcus): 6.41 µM (active); EC50 [3]: 21.1 µM (active); AC50 (INS1): 11.8 µM (active); EC50 [7]: 2.62 µM (active) |
| COc1cccc(-c2cc(NCc3cccnc3)ncn2)c1 | – | 25.1 µM (inconclusive) | – | – | – |
| Cc1ccc2sc(N(CCCN(C)C)C(=O)CCS(=O)(=O)c3ccccc3)nc2c1C | – | – | 11.1 µM (active) | 13.7 µM (active) | EC50 [8]: 4.17 µM (active); EC50 [3]: 14.3 µM (active); EC50 [9]: 0.226 µM (active) |
| O=C(NCCN1CCN(C(=O)c2cccc(Br)c2)CC1)C(=O)Nc1ccc(Br)cc1 | – | – | 65.2 µM (active) | 18.7 µM (active) | EC50 [3]: 13.8 µM (active) |
| COc1ccc(Nc2nc(N)nc(CSc3nc(C)cc(C)n3)n2)cc1 | – | – | 91.3 µM (active) | > 120 µM (not active) | EC50 [2]: > 195 µM (not active); EC50 [3]: 19.8 µM (active) |
| CS(=O)(=O)Nc1cccc(-c2ccc3ncnc(NCc4cccnc4)c3c2)c1 | – | 20 µM (inconclusive) | – | – | – |
| CC(C)(C)NC(=O)CN(Cc1cccs1)C(=O)CCC(=O)Nc1nccs1 | – | 28.2 µM (inconclusive) | – | – | – |
| COc1ccc(C(=O)N/N=C2/SCC(=O)N2Cc2ccc3c(c2)OCO3)cc1OC | 25.1 µM (inconclusive) | – | – | – | – |
| CN(C)C(=O)c1ccc(-c2ccc3ncnc(NCc4ccccc4)c3c2)cc1 | – | 31.6 µM (inconclusive) | – | – | – |
| Clc1ccc2c(NCCNc3ccnc4cc(Cl)ccc34)ccnc2c1 | 5.01 µM (inconclusive) | – | – | – | – |
